According to patent publication US20250228858A1, “ANTI-CANCER COMBINATION THERAPY” (Boehringer Ingelheim International GmbH, priority 2023, published 2025):
Where two headings read alike, the source gives them in different places.

Assays:
[1] = tested on: HER2-overexpressing human esophagus cancer cell line OE19; format: in vivo; conditions: day 20, zongertinib 20 mg/kg qdx20 p.o., T-DXd 3 mg/kg q21dx1 i.v., alone or combined; for Regressions >30%: tumors regressed/total
Experimental: The study is performed in human esophagus cancer cell line OE19 grown as subcutaneous xenografts in NMRI-Foxn1^nu mice. Day 1 was the first day, day 20 the final day of analysis.
OE19 is a HER2-overexpressing human esophagus cancer cell line that can be obtained from the European Collection of Authenticated Cell Cultures (ACACC Cat. No. 960071721). Cells are cultured in T75, T175 and 5-Layer tissue culture flasks at 37° C. and 5% CO2. The medium used is RPMI 1640 (ATCC #30-2001) supplemented with 10% FCS (Thermo Scientific #SH 30084.03). Cultures are split twice weekly with a ratio of 1:3-1:4.
To establish subcutaneous tumors, OE19 cells are harvested by centrifugation, washed and resuspended in PBS+5% FCS at 5×10^7 cells/ml. 100 μl cell suspension containing 5×10^6 cells is injected subcutaneously into the right flank of the mice (1 site per mouse).
Tumor volumes and side effects are monitored as described in Example 1 (see paragraph 1.1.6), except that control animals are sacrificed when the median tumor volume of the group reaches a size of approximately 1190 mm^3.
The statistical evaluation of the tumor volume and the body weight is conducted on day 20.

[2] = tested on: HER2-overexpressing human ovarian cell line SK-OV-3; assay: SK-OV-3 subcutaneous xenograft, zongertinib with T-DXd; format: in vivo, NMRI-Foxn1^nu mice
Experimental: The study is performed in human ovarian cancer cell line SK-OV-3 grown as subcutaneous xenografts in NMRI-Foxn1^nu mice. Day 1 was the first day, day 20 the last day of treatment and final day of analysis.
SK-OV-3 is a HER2-overexpressing human ovarian cancer cell line that can be obtained from ATCC (lot HTB-77). Cells are cultured in T75, T175 and 5-Layer tissue culture flasks at 37° C. and 5% CO2. The medium used is IMDM (PAN-Biotech, #P04-200150) supplemented with 10% FCS (Cytiva HyClone Characterized FBS, SH30084.03n). Cultures are split twice weekly with a ratio of 1:2-1:3.
To establish subcutaneous tumors, SK-OV-3 cells are harvested by centrifugation, washed and resuspended in PBS+5% FCS at 5×10^7 cells/ml. 100 μl cell suspension containing 5×10^6 cells is injected subcutaneously into the right flank of mice (1 site per mouse).
Apart from this, statistical analysis was performed as described in Example 1 (see paragraph 1.1.7), with no evaluation of tumor growth after stop of treatment.

[3] = tested on: HER2-overexpressing human breast cancer cell line BT-474; format: in vivo; conditions: alone or combined
Experimental: The study is performed in human breast cancer cell line BT-474 grown as orthotopic xenografts in NMRI-Foxn1^nu mice. Day 1 was the first day, day 42 the last day of treatment and final day of analysis.
BT-474 is a HER2-overexpressing human breast cancer cell line that can be obtained from ATCC (lot #61136823). Cells are cultured in T75, T175 and 5-Layer tissue culture flasks at 37° C. and 5% CO2. The medium used is Hybri-Care (ATCC, 46-X) supplemented with 1.5 g/L sodium bicarbonate (GIBCO, Ref.: 25080-060) and 10% FCS (Cytiva HyClone Characterized FBS, SH30084.03n). Cultures are split twice weekly with a ratio of 1:2-1:3.
To establish subcutaneous tumors, BT-474 cells are harvested by centrifugation, washed and resuspended in PBS+5% FCS at 5×10^7 cells/ml. […] cell suspension containing 5×10^6 cells is injected orthotopically into the right mammary fat pad of isoflurane anesthetized mice (1 site per mouse).
Pertuzumab can be purchased from Roche Pharma AG. Pertuzumab is diluted with saline (0.9%) and administered intraperitoneally with a volume of 10 ml/kg.
Mice in the control group are treated with vehicle, i.e.: • (i) 0.5% Natrosol, administered once daily for the duration of the treatment intragastrally by gavage needle with a volume of 10 ml/kg body weight; and • (ii) saline (0.9%), administered once every 3 weeks intravenously into the tail vein with a volume of 5 ml/kg; and • (iii) saline (0.9%), administered once every week intraperitoneally with a volume of 10 ml/kg.
Tumor volumes and side effects are monitored as described in Example 1 (see paragraph 1.1.6), except that control animals are sacrificed when the median tumor volume of the group reaches a size of approximately 470 mm^3.
The statistical evaluation of the tumor volume and the body weight is conducted on day 42 (last day of the study). Apart from this, statistical analysis was performed as described in Example 1 (see paragraph 1.1.7), with no evaluation of tumor growth after stop of treatment.

[4] = tested on: HER2-overexpressing human breast cancer cell line SUM190PT; format: in vivo
Experimental: The study is performed in human breast cancer cell line SUM190PT grown as subcutaneous xenografts in NMRI-Foxn1^nu mice. Day 1 was the first day, day 21 the last day of treatment and final day of analysis.
Cells are obtained and cultured as described in Example 8 (see paragraph 8.1.2).
Capecitabine can be purchased from Roche Pharma AG. Capecitabine is suspended with 0.5% Natrosol and administered intragastrally with a volume of 10 ml/kg.
Tumor volumes and side effects are monitored as described in Example 1 (see paragraph 1.1.6), except that control animals are sacrificed when the median tumor volume of the group reaches a size of approximately 540 mm^3.
The statistical evaluation of the tumor volume and the body weight is conducted on day 21 (last day of the study). Apart from this, statistical analysis was performed as described in Example 1 (see paragraph 1.1.7), with no evaluation of tumor growth after stop of treatment.

## C=CC(=O)NC1CCN(c2ncc3ncnc(Nc4ccc(Oc5ccc6c(c5)ncn6C)c(C)c4)c3n2)CC1 [Zongertinib, N-{1-[8-({3-methyl-4-[(1-methyl-1H-1,3-benzodiazol-5-yl)oxy]phenyl}amino)-[1,3]diazino [5,4-d]pyrimidin-2-yl]piperidin-4-yl}prop-2-enamide]
[1]
  Regressions >30%: 0/8
  TGI: 73%
[1]; listed as zongertinib
  Regressions >30%: no tumors
[2]; day 15, zongertinib 10 mg/kg qdx20 p.o., T-DXd 7 mg/kg q21dx1 i.v., alone or combined
  TGI: 91%
[2]; day 20, tumors regressed/total (partial response), zongertinib 10 mg/kg qdx20 p.o., T-DXd 7 mg/kg q21dx1 i.v., alone or combined
  Regressions >30%: 0/8
[2]; day 20, zongertinib 10 mg/kg qdx20 monotherapy
  stable diseases: 2 out of 8
[3]; day 42, tumors regressed/total (partial response), zongertinib 10 mg/kg qdx42 p.o., T-DXd 1 mg/kg q21dx2 i.v., pertuzumab 20 mg/kg q7dx6 i.p.
  Regressions >30%: 0/8
[3]; day 42, zongertinib 10 mg/kg qdx42, T-DXd 1 mg/kg q21dx2
  stable disease (tumors remained stable): 2 out of 8
[3]; day 42, zongertinib 10 mg/kg qdx42 p.o., T-DXd 1 mg/kg q21dx2 i.v., pertuzumab 20 mg/kg q7dx6 i.p.
  TGI: 70%
[3]; zongertinib 10 mg/kg qdx42, T-DXd 1 mg/kg q21dx2, pertuzumab 20 mg/kg q7dx6
  effect on tumor growth (median tumor volumes over time): delayed tumor growth, but median tumor volumes increased in the course of the experiment
[4]; day 21, tumors regressed/total (partial response), zongertinib 10 mg/kg qdx21 p.o., capecitabine 400 mg/kg qdx21 p.o., trastuzumab 20 mg/kg q7dx3 i.p., alone or combined
  Regressions >30%: 0/8
[4]; day 21, zongertinib 10 mg/kg qdx21 p.o., capecitabine 400 mg/kg qdx21 p.o., trastuzumab 20 mg/kg q7dx3 i.p., alone or combined
  TGI: 53%
[4]; zongertinib 10 mg/kg qdx21, capecitabine 400 mg/kg qdx21, trastuzumab 20 mg/kg q7dx3, alone or triple combination
  effect on tumor growth (median tumor volumes over time): delayed tumor growth but did not shrink tumors
